Measured values published in patent US20080305186A1, “Method and Composition for the Treatment of Cardiac Hypertrophy” (BOARD OF REGENTS, THE UNIVERSITY OF TEXAS SYSTEM, priority 2007, published 2008).
“Also recorded” adds a separate entry of the source.

Assays:
[1] = cited from earlier work
adenylate cyclase = conditions: by inhibiting adenylate cyclase; cited from earlier work
[2] = system: positive chronotropic effect induced by isoproterenol; test: Heart rate of isoproterenol-treated mice; assay type: in vivo; conditions: day 9 of treatment, vs isoproterenol-only mice; n=5; FIG. 5
Method: (§1) All animal and mouse studies and/or models of cardiac hypertrophy were conducted in accordance with the standards set forth in the Guide for the Care and Use of Laboratory Animals (NIH Publication No. 85-23, revised 1996) and were approved by our Institutional Animal Care and Use Committee. Eight week-old C57BL/6 male mice (Jackson Laboratory) were given isoproterenol (Sigma Aldrich) at 40 mg·kg^−1d^−1 administered S.Q. via micro-osmotic pump insertion (ALZET 1007D). Briefly, animals were anesthetized with isoflurane (1.5%) and oxygen (98.5%) using an animal ventilator (Surgivet), an incision (1 cm) was made on the back between the shoulder blades, and micro-osmotic pumps containing isoproterenol dissolved in a saline solution (0.9% NaCl) were inserted into the infrascapular subcutaneous tissue.
Doxycycline was given in drinking water at 6 mg mL^−1 (Sigma Aldrich) containing 5% sucrose unless specified otherwise. Control animals were given 5% sucrose water. […] Briefly, chow was crunched in powder and then mixed with carbamazepine. […]
The heart rates of the mice were measured before induction of cardiac hypertrophy and after treatment on day 9, which was 1 day before they were sacrificed. […] Heart rates were measured before the experiment (t0) and 1 day before the sacrifice. […]

CREB = test: Western blot of phosphorylation status of CREB; assay type: in vivo; conditions: mice with isoproterenol-induced cardiac hypertrophy
Method: Western Blots. The antibodies for Adra1b and GAPDH were purchased from Santa Cruz Biochemical Co. (Santa Cruz, Calif.). All other antibodies were purchased from Cell Signaling Technology, and Western blot analysis was performed as previously described (21). Briefly, equal amounts of total protein were loaded and separated on sodium dodecyl sulfate (SDS)—10% polyacrylamide gels and then transferred to nitrocellulose membranes. Membranes were blocked with 5% milk and washed in 1× Tween (0.1%)—Tris-buffered saline (TTBS) three times for 5 minutes each. Primary antibodies diluted 1:1000 in 5% milk or bovine serum albumin (BSA) (prepared in 1×TTBS) were allowed to incubate overnight at 4° C. After washing, horseradish peroxidase (HRP)-conjugated secondary antibody (Cell Signaling Technology) was diluted 1:2000 in 5% milk and applied to membranes. Subsequently, membranes were washed and a chemiluminescence substrate (Pierce, Rockford Ill.) was applied and allowed to incubate at room temperature for 5 minutes.

cardiac gene expression = test: Real-time quantitative RT-PCR of heart RNA; assay type: in vivo, mice; parameters: key to Oncostatin receptor (Osmr), Real-time RT-PCR: Ind/Red (Induced/reduced) are used instead of fold-changes where no transcript was detected in one of the two samples being compared; Ind/Red (Induced/reduced) are used instead of fold-changes where no transcript was detected in one of the two samples being compared; conditions: drug + isoproterenol vs isoproterenol only; for Oncostatin receptor (Osmr), Real-time RT-PCR: no transcript detected in one of the two samples
Method: Real-time reverse transcriptase-polymerase chain reaction (RT-PCR). Real-time quantitative RT-PCR was performed in the iCycler iQ multi-Color real-time PCR detection system (Bio-Rad, Hercules, Calif.) using SYBR Green I dye (Qiagen, Valencia, Calif.) as described by the manufacturer. Briefly, 100 ng of RNA was placed into a 25 μl reaction volume containing 2.5 μl of each primer set (Quantitect Primer Assays, Qiagen), 12.5 μl SYBER Green PCR master mix, and 0.25 μl reverse transcriptase. A typical protocol included reverse transcription at 50° C. for 30 minutes and a denaturation step at 95° C. for 15 minutes followed by 35 cycles with 94° C. denaturation for 15 seconds, 55 C annealing for 30 seconds and 72 C extension for 30 seconds. Detection of the fluorescent product was performed at the end of the extension period at 60° C. for 20 seconds. To confirm amplification specificity, the PCR products were subjected to a melting curve analysis. […] Targets were normalized to reactions performed using Quantitect GAPDH primer assay (Qiagen), and fold change was determined using the comparative threshold method (20).

[3] = system: isoproterenol induced cardiac hypertrophy; test: Isoproterenol-induced cardiac hypertrophy in mice: heart size, heart weight ratios, histology; assay type: in vivo, C57BL/6 male mice
Method: as §1
Doxycycline was given in drinking water at 6 mg mL^−1 (Sigma Aldrich) containing 5% sucrose unless specified otherwise. Control animals were given 5% sucrose water. […] Water was added to the mix 0.8:1 (water weight to powder weight ratio) and the resulting paste diced and heated at 60° C. overnight.
Histology. Animal hearts were excised, fixated with 10% phosphate-buffered formalin for 48 hours, and then embedded in paraffin. Cross-sectional slices in the minor axis were obtained with a microtome and the slices stained using Mayer's hematoxylin and eosin (H&E).
Statistical analysis of the data includes values presented are expressed in mean ±S.E.M. All comparisons between groups were performed using a one way ANOVA followed by the Newman-Keuls test. Differences were considered to be statistically significant when P<0.05.
P-values are obtained from a one way ANOVA. […] The control group (isoproterenol) received regular chow and 7% sucrose water. Each circle is the Heart to Body weights ratio obtained for a mouse, while the dashes are the average for each group.

Histone Deacetylase = conditions: cited from earlier work
[4] = doxycycline co-administered with carbamazepine; cited from earlier work

Compound | Oncostatin receptor (Osmr), Real-time RT-PCR (cardiac gene expression) | Cyclin-dependent kinase inhibitor 1A (p21) (Cdkn1a), Real-time RT-PCR FC (cardiac gene expression; normalized to GAPDH) [FC] | Cytokine inducible SH2-containing protein 3 (Socs3), Real-time RT-PCR FC (cardiac gene expression; normalized to GAPDH) [FC] | GATA binding protein 4 (Gata4), Real-time RT-PCR FC (cardiac gene expression; normalized to GAPDH) [FC] | Matrix metalloproteinase 3 (Mmp3), Real-time RT-PCR FC (cardiac gene expression; normalized to GAPDH) [FC] | NADPH oxidase 4 (Nox4), Real-time RT-PCR FC (cardiac gene expression; normalized to GAPDH) [FC] | Phospholipase A2 group VII (platelet-activating factor acetylhydrolase, plasma) (Pla2g7), Real-time RT-PCR FC (cardiac gene expression; normalized to GAPDH) [FC] | S100 calcium binding protein A8 (calgranulin A) (S100a8), Real-time RT-PCR FC (cardiac gene expression; normalized to GAPDH) [FC] | SET and MYND domain containing 1 (Smyd1), Real-time RT-PCR FC (cardiac gene expression; normalized to GAPDH) [FC] | Serine protease inhibitor 2-2 (Spi2-2) (Serpin3n), Real-time RT-PCR FC (cardiac gene expression; normalized to GAPDH) [FC] | Transformation related protein 53 inducible nuclear protein 1 (Trp53inp1), Real-time RT-PCR FC (cardiac gene expression; normalized to GAPDH) [FC] | also measured
NC(=O)N1c2ccccc2C=Cc2ccccc21 [carbamazepine] | Red | −2.5 | −4.3 | 2.0 | −2.5 | −3.5 | −3.5 | −2.1 | 3.3 | −13.9 | −3.0 | blood pressure and heart rates ([1]; epileptic patients): lower blood pressure and heart rates; cardiovascular toxic effects ([1]; in vivo): no cardiovascular toxic effects; basal and forskolin-stimulated cAMP production (adenylate cyclase): abrogate both basal and forskolin-stimulated cAMP production; heart rate [2]: significantly lower heart rates; also recorded: attenuation of the positive chronotropic effect; levels of phosphorylated CREB (CREB): Almost no phosphorylated CREB was detected; hypertrophic phenotype, heart cross sections (histology) ([3]; isoproterenol mice, H&E cross sections, FIG. 2): structure that is relatively well preserved; also recorded: reduced the hypertrophic phenotype; Heart to Body weights ratio ([3]; isoproterenol mice, 10 days, doxycycline 10 mg/mL in 7% sucrose water, carbamazepine […] in chow, FIG. 3, carbamazepine vs control P<0.01): significantly decreased; Heart to Tibia length ratio ([3]; isoproterenol mice, carbamazepine in chow or doxycycline in water vs no drug, FIG. 1, carbamazepine vs control P<0.0001): significantly lower; also recorded: significantly decreased; heart weight ([3]; single isoproterenol and carbamazepine treated mouse, FIG. 2C (untreated isoproterenol mouse 0.1800, wild type 0.1305)): 0.1415 grams; inhibition of Histone Deacetylase (HDAC) (Histone Deacetylase): inhibit Histone Deacetylase
C[C@H]1c2cccc(O)c2C(=O)C2=C(O)[C@]3(O)C(=O)C(C(N)=O)=C(O)[C@@H](N(C)C)[C@@H]3[C@@H](O)[C@@H]21 [doxycycline] | Red | −7.0 | −4.0 | 4.9 | −3.5 | −4.0 | −1.9 | −181.0 | 1.6 | −3.8 | −1.9 | Cyclin G2 (Ccng2), Real-time RT-PCR FC (cardiac gene expression; normalized to GAPDH): −5.7 FC; DNA-damage-inducible transcript 4 (Ddit4), Real-time RT-PCR FC (cardiac gene expression; normalized to GAPDH): −5.7 FC; Gem GTPase (Gem), Real-time RT-PCR FC (cardiac gene expression; normalized to GAPDH): −1.8 FC; Lipocalin 2 (Lcn2), Real-time RT-PCR FC (cardiac gene expression; normalized to GAPDH): −9.9 FC; Metallothionein 1 (MT2), Real-time RT-PCR FC (cardiac gene expression; normalized to GAPDH): −14.9 FC; S100 calcium binding protein A9 (calgranulin B) (S100a9), Real-time RT-PCR FC (cardiac gene expression; normalized to GAPDH): −104.0 FC; Tubulin, alpha 4 (Tuba4), Real-time RT-PCR FC (cardiac gene expression; normalized to GAPDH): 36.8 FC; half-life [4]: shorter
